From patent publication US5512471A, “Process for purifying an α-D-galactosidase isozyme from Coffea beans” (The Curators of the University of Missouri, priority 1992, dated 1996)

test system: α-D-galactosidase isozyme; assay: Substrate specificity with PNP and 4-MU conjugates; assay type: biochemical, Coffea canephora; conditions: 4-MU substrates, pH 6.0; % of activity on 4-MU-α-D-galactopyranoside
Description: Analytical procedures: Protein concentration was quantitated by the method of Bradford using bovine serum albumin (BSA) as a standard (9). […] One unit of activity was defined as 1.0 μmole of substrate hydrolyzed per minute.

Q: How did the “RELATIVE ACTIVITY” value turn out when CC(=O)NC1C(O)CC(Oc2ccc3c(C)cc(=O)oc3c2)(C(=O)O)OC1C(O)C(O)CO (stereo not drawn) [4-MU-N-acetyl-α-neuraminic acid] was run?
A: < 0.01%

Q: For Cc1cc(=O)oc2cc(O[C@H]3O[C@H](CO)[C@H](O)[C@H](O)[C@H]3O)ccc12 [4-MU-α-D-galactopyranoside], which “RELATIVE ACTIVITY” value is on record?
A: 100.00%

same assay, conditions: PNP conjugates 2.5 mM, pH 6.0; % of activity on PNP-α-D-galactopyranoside

Q: For CC(=O)N[C@H]1[C@@H](Oc2ccc([N+](=O)[O-])cc2)O[C@H](CO)[C@H](O)[C@@H]1O [PNP-N-acetyl-α-D-galactosaminide], which “RELATIVE ACTIVITY” value is on record?
A: < 0.06%

Q: Which “RELATIVE ACTIVITY” value does the source give for CC(=O)N[C@H]1[C@@H](Oc2ccc([N+](=O)[O-])cc2)O[C@H](CO)[C@@H](O)[C@@H]1O [PNP-N-acetyl-α-D-glucosaminide] here?
A: < 0.06%

Q: CC(=O)N[C@H]1[C@H](Oc2ccc([N+](=O)[O-])cc2)O[C@H](CO)[C@H](O)[C@@H]1O [PNP-N-acetyl-β-D-galactosaminide] was tested. Which “RELATIVE ACTIVITY” value did it give?
A: < 0.06%

Q: With CC(=O)N[C@H]1[C@H](Oc2ccc([N+](=O)[O-])cc2)O[C@H](CO)[C@@H](O)[C@@H]1O [PNP-N-acetyl-β-D-glucosaminide] as the compound, how does the “RELATIVE ACTIVITY” value read?
A: < 0.06%

Q: How did the “RELATIVE ACTIVITY” value turn out when O=[N+]([O-])c1ccc(O[C@H]2O[C@H](CO)[C@H](O)[C@H](O)[C@H]2O)cc1 [PNP-α-D-galactopyranoside] was run?
A: 100.00%

Q: For O=[N+]([O-])c1ccc(O[C@H]2O[C@H](CO)[C@@H](O)[C@H](O)[C@H]2O)cc1 [PNP-α-D-glucopyranoside], which “RELATIVE ACTIVITY” value is on record?
A: < 0.06%

Q: Which “RELATIVE ACTIVITY” value does the source give for O=[N+]([O-])c1ccc(O[C@@H]2OC[C@H](O)[C@H](O)[C@H]2O)cc1 [PNP-α-L-arabinopyranoside] here?
A: < 0.06%

Q: With C[C@@H]1O[C@@H](Oc2ccc([N+](=O)[O-])cc2)[C@@H](O)[C@H](O)[C@@H]1O [PNP-α-L-fucopyranoside] as the compound, how does the “RELATIVE ACTIVITY” value read?
A: < 0.06%

Q: With O=[N+]([O-])c1ccc(O[C@@H]2O[C@H](CO)[C@H](O)[C@H](O)[C@H]2O)cc1 [PNP-β-D-galactopyranoside] as the compound, how does the “RELATIVE ACTIVITY” value read?
A: < 0.06%

Q: Which “RELATIVE ACTIVITY” value does the source give for O=[N+]([O-])c1ccc(O[C@@H]2O[C@H](CO)[C@@H](O)[C@H](O)[C@H]2O)cc1 [PNP-β-D-glucopyranoside] here?
A: < 0.06%

Q: How did the “RELATIVE ACTIVITY” value turn out when C[C@@H]1O[C@H](Oc2ccc([N+](=O)[O-])cc2)[C@@H](O)[C@H](O)[C@@H]1O [PNP-β-L-fucopyranoside] was run?
A: < 0.06%

test system: α-D-galactosidase isozyme; assay: Km determination by varying the substrate concentration; assay type: biochemical, Coffea canephora; conditions: 50 mM Na citrate + 1 mg/ml BSA, pH 6.0; mean, S.D.=0.09, N=3
Procedure: The pH optimum was determined by incubating aliquots of the enzyme in 40 mM Na citrate +40 mN Na H2 PO4 +1 mg/ml BSA+2.5 mM PNP-α-D-galactopyranoside, pH =2.0 to 8.0. The ionic strength optimum was determined by incubating aliquots of the enzyme in 5.0 mM Na citrate +1 mg/ml BSA +2.5 mM PNP α-D-galactopyranoside +0 to 1.0M Na Cl, pH =6.0. The Km for PNP-α-D-galactopyranoside was determined by varying the substrate concentration in 50 mM Na citrate +1 mg/ml BSA, pH =6.0. The native molecular weight of the isozyme was determined by applying a concentrated portion of the enzyme to a 1.5×45 cm Sephacryl S-200 column equilibrated in 25 mM Na citrate +200 mM NaCl, pH=6.0.

Q: With O=[N+]([O-])c1ccc(O[C@H]2O[C@H](CO)[C@H](O)[C@H](O)[C@H]2O)cc1 [PNP-α-D-galactopyranoside] as the compound, how does the Km read?
A: 260 µM
